Tests used:
[1] = tested on: human induced pluripotent stem cells; assay: Etoposide sensitivity assay (ESA), Annexin V/PI flow cytometry; type: cell-based; conditions: for EC50: Homo sapiens, 24 h
Description: An assay for assessing pluripotency or for releasing a stem cell population for clinical diagnostic or therapeutic use can include obtaining a series of cell samples from the population being assessed. Each of these samples can be contacted with an increasing concentration of one or more DNA damaging agent(s). Any appropriate length of time can be used for the incubation period. For example, the cells can be incubated as 37° C. for between about 30 minutes and about 48 hours (e.g., between about 30 minutes and about 36 hours, between about 30 minutes and about 24 hours, or between about 1 hour and about 24 hours). After this contacting step, the cells can be evaluated using, for example, flow cytometry to determine how susceptible the cells are to apoptosis. In some cases, flow cytometry can be carried out as follows. Briefly, pluripotent stem cells can be seeded in plates (e.g., 24 well plates) and treated with etoposide (Sigma-Aldrich) or DMSO for a period of time (e.g., about 24 hours) at, for example, about 50% confluence. Media and cells can be stained with Annexin V FITC/PI and analyzed via flow cytometry (e.g., via a Gallios (Beckman Coulter) flow cytometer). Data analysis can be performed using Kaluza (Beckman Coulter) software and normalized by dividing the triplicate means (viable non-staining cells) by the corresponding DMSO control. Human pluripotent stem cell clones were assessed for etoposide sensitivity as follows. Mechanically processed hiPSC's were seeded onto a 24-well plate (1×60 mm dish: 1×24-well plate), maintained for 3-5 days, and subsequently treated with etoposide (1, 10, 50, 100, 250, 500, and 1,000 nM, all performed in triplicate wells) or vehicle control (DMSO) for 24 hours. Conditioned media was collected into appropriately labeled 12×75 mm flow tubes, and 200 μL of TryPLE was added to each well. Following a brief incubation at 37° C. (5-10 minutes), 1 mL of pre-warmed (37° C.) FAC's buffer (4 mM EDTA, 0.5% FBS, 1×DPBS pH 7.4 w/o Ca^2+, Mg^2+) was added to each well. The total well contents were transferred to their corresponding conditioned media tubes, and all tubes were spun down at 400×G for 5 minutes. Tubes were washed 1× with ice-cold Annexin Binding Buffer (ABB, 10 mM HEPES, 2.5 mM CaCl2, 140 mM NaCl, pH 7.4) and stained with Annexin-FITC (BD 556420, 5 μL in 100 μL total ABB per tube) for 30 minutes on ice while protected from light. All tubes were washed 1× in ABB, and the resulting cell pellets were resuspended in 400 μL of ABB supplemented with 1 μL of 1 mg/mL propidium iodide (Sigma-Aldrich, P4864). Samples were immediately assayed by flow cytometry (Gallios, Beckman Coulter), and data were subsequently analyzed for percent viability using Kaluza software (Beckman Coulter).

[2] = tested on: cardiomyocytes differentiated from hiPSC's; assay: Etoposide sensitivity assay during cardiomyocyte differentiation of hiPSC's; type: cell-based, human; conditions: mature, beating cardiomyocytes (Day 9)

For COc1cc([C@@H]2c3cc4c(cc3[C@@H](O[C@@H]3O[C@@H]5CO[C@@H](C)O[C@H]5[C@H](O)[C@H]3O)[C@H]3COC(=O)[C@H]23)OCO4)cc(OC)c1O [etoposide], the EC50 ([1]; cleaned (C) hiPSC cultures after removal of poor quality clones/cells, 24 hours) was < 300 nM, the EC50 ([1]; poor quality clones/cells from unclean (UC) hiPSC cultures, feeder free) was > 300 nM and the etoposide sensitivity ([1]; Sendai virus derived hiPSC clones compared to lentivirus reprogrammed clones, 126 clones) was “significant decrease in etoposide sensitivity”. The etoposide sensitivity ([1]; hiPSC clones of poor quality and cellular differentiation, feeder free conditions) was “reduced or negligible etoposide sensitivity”, the sensitivity to etoposide ([1]; hiPSC lines RT 4.1 and RT 6.21 compared with other hiPSC lines, 24 hours) was “greatest sensitivity” and the sensitivity to etoposide [2] was “near complete lack of sensitivity”.
